# Experimental data reported in US12479927B2, “Compounds comprising cleavable linker and uses thereof” (priority 2017, dated 2025).
# Tested on: KB cancer cells
# Test: cells
# Format: cell-based
# Conditions: Homo sapiens, KB, read-out: KB cell IC50(nM)
# Description: KB cancer cells were collected and seeded in 24-well plates at a density of 30,000 cells per well in 2 mL of medium, and cultured for 24 hours. Then, the serial dilutions of compound C-1 obtained in Example 108 were treated from 30 nM to 0.0096 nM, the serial dilutions of compound C-2 obtained in Example 109 were treated from 1000 nM to 0.32 nM, serial dilutions of the compound C-3 obtained in Example 110 and the compound C-7 obtained in Example 114 were treated from 25 nM to 0.0016 nM, and serial dilutions of the drug MMAF-OMe were treated from 10 nM to 0.0097 nM. The serial dilutions of compounds C-5 and C-6 obtained in Example 112 and Example 113 were treated from 100 nM to 0.0001 nM, and the serial dilutions of drug seco-DUBA were treated from 100 nM to 0.001 nM. Serial dilutions of the compounds C-4 and C-9 obtained in Example 111 and Example 116 were treated from 1000 nM to 0.001 nM, and the serial dilutions of drug CBI dimer were treated by from 10 nM to 0.00001 nM. Serial dilutions of the compound C-8 obtained in Example 115 and the drug CBI-indole were treated from 100 nM to 0.0001 nM. After 72 hours, 96 hours, or 144 hours of incubation, 0.2 mL of 3-(4,5-dimethylthiazol-2-yl)-2,5-diphenyltetrazolium bromide (MTT) dye, dissolved in PBS buffer solution (5 mg/mL), was added to each well of the plates. The formazans formed by reduction of the MTT dye by mitochondrial oxidoreductases in the living cells were dissolved in DMSO, and measured using the absorbance at 550 nm.
row,SMILES,IC50 [nM]
1,"COc1cc2[nH]c(C(=O)N3C[C@@H](CCl)c4c3cc(O)c3cccc(C)c43)cc2cc1OCCN(C)C [CBI-indole, reference compound]",0.07

# Same assay, conditions: Homo sapiens, KB; MTT; 72 hours, 96 hours, or 144 hours of incubation; read-out: KB cell IC50
row,SMILES,IC50 [nM]
1,"Cc1cccc2c(O)cc3c(c12)[C@H](CCl)CN3C(=O)c1cn2cc(NC(=O)c3ccc(O)cc3)ccc2n1 [Seco-DUBA, reference compound]",0.18

# Same assay, conditions: MTT; 72 hours, 96 hours, or 144 hours of incubation; read-out: KB cell IC50
row,SMILES,IC50 [nM]
1,COc1cc2[nH]c(C(=O)N3C[C@@H](CCl)c4c3cc(OS(=O)(=O)Oc3cc(C(=O)NCCOCCOCCOCCn5cc(CCC(=O)N[C@H](CCCCN)C(=O)NCCOCCOCCNC(=O)CC[C@@H](NC(=O)c6ccc(NCc7cnc8nc(N)[nH]c(=O)c8n7)cc6)C(=O)O)nn5)ccc3O[C@@H]3O[C@H](CO)[C@H](O)[C@H](O)[C@H]3O)c3cccc(C)c43)cc2cc1OCCN(C)C [Compound C-8],0.12
2,CC(=O)Oc1cc2c(c3ccccc13)[C@H](CCl)CN2C(=O)CCCC(=O)N1C[C@@H](CCl)c2c1cc(OS(=O)(=O)Oc1cc(C(=O)NCCOCCOCCOCCn3cc(CCC(=O)N[C@H](CCCCN)C(=O)NCCOCCOCCNC(=O)CC[C@@H](NC(=O)c4ccc(NCc5cnc6nc(N)[nH]c(=O)c6n5)cc4)C(=O)O)nn3)ccc1O[C@@H]1O[C@H](CO)[C@H](O)[C@H](O)[C@H]1O)c1ccccc21 [Compound C-9],0.1
3,NCCCC[C@@H](NC(=O)CCc1cn(CCOCCOCCOCCNC(=O)c2ccc(O[C@@H]3O[C@H](CO)[C@H](O)[C@H](O)[C@H]3O)c(OS(=O)(=O)Oc3cc4c(c5ccccc35)[C@H](CCl)CN4C(=O)c3cn4cc(NC(=O)c5ccc(O)cc5)ccc4n3)c2)nn1)C(=O)NCCOCCOCCNC(=O)CC[C@@H](NC(=O)c1ccc(NCc2cnc3nc(N)[nH]c(=O)c3n2)cc1)C(=O)O [Compound C-6],0.45
4,CCc1c2c(nc3ccc(OS(=O)(=O)Oc4cc(C(=O)NCCOCCOCCOCCn5cc(CCC(=O)N[C@H](CCCCN)C(=O)NCCOCCOCCNC(=O)CC[C@@H](NC(=O)c6ccc(NCc7cnc8nc(N)[nH]c(=O)c8n7)cc6)C(=O)O)nn5)ccc4O[C@@H]4O[C@H](CO)[C@H](O)[C@H](O)[C@H]4O)cc13)-c1cc3c(c(=O)n1C2)COC(=O)[C@]3(O)CC [Compound C-2],> 500
5,NCCCC[C@@H](NC(=O)CCc1cn(CCOCCOCCOCCNC(=O)c2ccc(O[C@@H]3O[C@H](CO)[C@H](O)[C@H](O)[C@H]3O)c(OS(=O)(=O)Oc3cc4c(c5ccccc35)[C@H](CCl)CN4C(=O)CCCC(=O)N3C[C@@H](CCl)c4c3cc(O[C@@H]3O[C@H](CO)[C@H](O)[C@H](O)[C@H]3O)c3ccccc43)c2)nn1)C(=O)NCCOCCOCCNC(=O)CC[C@@H](NC(=O)c1ccc(NCc2cnc3nc(N)[nH]c(=O)c3n2)cc1)C(=O)O [Compound C-4],0.02

# Molecular target: Escherichia coli β-galactosidase (Escherichia coli, UniProt P00722)
# Sequence (P00722 2-1024): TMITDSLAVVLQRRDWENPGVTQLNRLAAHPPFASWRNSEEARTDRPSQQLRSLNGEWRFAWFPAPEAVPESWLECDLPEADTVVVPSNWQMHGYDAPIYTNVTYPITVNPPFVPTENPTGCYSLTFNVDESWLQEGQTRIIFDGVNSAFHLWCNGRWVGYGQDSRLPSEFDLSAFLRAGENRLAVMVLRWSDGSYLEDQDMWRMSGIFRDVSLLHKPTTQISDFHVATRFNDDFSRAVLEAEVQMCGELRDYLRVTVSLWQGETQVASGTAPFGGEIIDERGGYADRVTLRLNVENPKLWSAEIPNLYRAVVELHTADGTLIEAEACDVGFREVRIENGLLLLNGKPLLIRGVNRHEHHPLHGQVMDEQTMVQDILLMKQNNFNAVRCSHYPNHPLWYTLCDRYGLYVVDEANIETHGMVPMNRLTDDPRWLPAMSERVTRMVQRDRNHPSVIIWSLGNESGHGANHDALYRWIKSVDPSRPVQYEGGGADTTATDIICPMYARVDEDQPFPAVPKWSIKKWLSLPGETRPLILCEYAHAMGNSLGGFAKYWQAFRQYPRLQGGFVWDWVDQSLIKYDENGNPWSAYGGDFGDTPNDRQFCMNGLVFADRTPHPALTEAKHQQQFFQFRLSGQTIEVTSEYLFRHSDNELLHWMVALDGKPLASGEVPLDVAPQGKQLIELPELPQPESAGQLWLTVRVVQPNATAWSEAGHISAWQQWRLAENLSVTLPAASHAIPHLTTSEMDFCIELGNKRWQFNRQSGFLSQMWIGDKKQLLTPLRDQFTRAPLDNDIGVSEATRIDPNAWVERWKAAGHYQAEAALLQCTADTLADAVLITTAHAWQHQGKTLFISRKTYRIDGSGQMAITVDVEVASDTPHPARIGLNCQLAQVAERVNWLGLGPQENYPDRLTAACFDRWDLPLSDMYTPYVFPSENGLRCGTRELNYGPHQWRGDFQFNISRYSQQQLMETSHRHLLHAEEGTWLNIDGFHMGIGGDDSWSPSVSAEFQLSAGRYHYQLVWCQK
# Test: in vitro
# Conditions: recombinant enzyme, pH 5
# Description: Method 1. Escherichia coli β-galactosidase
# MPS used as a standard material was dissolved in PBS buffer solution to make 500 uM solution. […] This was followed by the addition of enzyme solution (14 μL of 1 mg/mL). When comparing with human β-galactosidase, 21 μL of enzyme solution (1 mg/mL) was added to achieve the same molar concentration, and the compound of the present invention and MPS each having an amount of 140 μL and […] of the buffer solution (pH 7.4) were mixed. The resulting reaction mixture was incubated at 37° C. Escherichia coli β-galactosidase enzyme (Sigma G4155) was used in the reaction mixture. The enzyme reaction solution was aliquoted at 0 min before the reaction and at a predetermined time after the reaction, respectively, wherein each aliquot was 70 μL. Then, the remaining compound of the present invention or MPS, and a material liberated by the enzyme reaction were quantitatively analyzed by HPLC.
row,SMILES,half-life at 100 μM [min]
1,CCc1c2c(nc3ccc(OS(=O)(=O)Oc4cc(C(=O)NCCOCCOCCOCCN=[N+]=[N-])ccc4O[C@@H]4O[C@H](CO)[C@H](O)[C@H](O)[C@H]4O)cc13)-c1cc3c(c(=O)n1C2)COC(=O)[C@]3(O)CC [Compound B-2],5.75

# Same assay, conditions: recombinant enzyme, pH 7.4
row,SMILES,half-life at 100 μM [min]
1,COc1ccc(/C=C\c2cc(OC)c(OC)c(OC)c2)cc1OS(=O)(=O)Oc1cc(C(=O)NCCOCCOCCOCCN=[N+]=[N-])ccc1O[C@@H]1O[C@H](CO)[C@H](O)[C@H](O)[C@H]1O [Compound B-7],< 5
2,Nc1nc(OCc2ccc(OS(=O)(=O)Oc3ccccc3OC3O[C@H](CO)[C@H](O)[C@H](O)[C@H]3O)cc2)c2ncn([C@@H]3O[C@H](CO)C(O)[C@@H]3O)c2n1 (stereo partly drawn) [Compound A-4],< 5
3,C[C@]12CC[C@@H]3c4ccc(OS(=O)(=O)Oc5cc(C(=O)NCCOCCOCCOCCN=[N+]=[N-])ccc5O[C@@H]5O[C@H](CO)[C@H](O)[C@H](O)[C@H]5O)cc4CC[C@H]3[C@@H]1CC[C@@H]2O [Compound B-6],< 5
4,CC(OCN(CCN(C)C)C(=O)OCc1ccc(OS(=O)(=O)Oc2ccccc2OC2O[C@H](CO)[C@H](O)[C@H](O)[C@H]2O)cc1)c1ccccc1 (stereo partly drawn) [Compound A-17],< 1
5,Cc1cn([C@H]2CC(O)[C@@H](CO)O2)c(=O)nc1OCc1ccc(OS(=O)(=O)Oc2ccccc2O[C@@H]2O[C@H](CO)[C@H](O)[C@H](O)[C@H]2O)cc1 (stereo partly drawn) [Compound A-13],< 5
6,CC/C(=C(\c1ccccc1)c1ccc(OCC[N+](C)(C)Cc2c(OC)cc(OS(=O)(=O)Oc3cc(C(=O)NCCOCCOCCOCCN=[N+]=[N-])ccc3OC3O[C@H](CO)[C@H](O)[C@H](O)[C@H]3O)cc2OC)cc1)c1ccccc1 (stereo partly drawn) [Compound B-11],< 5
7,CSCC[C@H](NC(=O)[C@H](Cc1ccccc1)NC(=O)CNC(=O)CNC(=O)[C@@H](N)Cc1ccc(OS(=O)(=O)Oc2ccccc2OC2O[C@H](CO)[C@H](O)[C@H](O)[C@H]2O)cc1)C(=O)O (stereo partly drawn) [Compound B-9],< 5
8,CC(C)(C)OC(=O)NC(Cc1ccc(OS(=O)(=O)Oc2cc(CCC(=O)NCCOCCOCCOCCN=[N+]=[N-])ccc2OC2O[C@H](CO)[C@H](O)[C@H](O)[C@H]2O)cc1)C(=O)O (stereo partly drawn) [Compound A-6],4.6 ± 1.72
9,CCC(C)[C@H]([C@H](CC(=O)N1CCC[C@@H]1[C@@H](OC)[C@H](C)C(=O)NC(Cc1ccccc1)C(=O)O)OC)N(C)C(=O)[C@H](NC(=O)[C@@H](C(C)C)N(C)C(=O)OCc1ccc(OS(=O)(=O)Oc2cc(C(=O)NCCOCCOCCOCCN=[N+]=[N-])ccc2O[C@H]2O[C@H](CO)[C@H](O)[C@H](O)[C@H]2O)cc1)C(C)C (stereo partly drawn) [Compound B-3],< 10
10,CC(C)(C)OC(=O)NC(Cc1ccc(OS(=O)(=O)Oc2cc(C(=O)NCCOCCOCCOCCN=[N+]=[N-])ccc2O[C@@H]2O[C@H](CO)[C@H](O)[C@H](O)[C@H]2O)cc1)C(=O)O (stereo partly drawn) [Compound A-2],3.71 ± 0.22
11,O=C(Cc1cccnc1)OCc1ccc(OS(=O)(=O)Oc2ccccc2O[C@@H]2O[C@H](CO)[C@H](O)[C@H](O)[C@H]2O)cc1 [Compound A-10],< 5
12,CC(C)(C)OC(=O)NC(Cc1ccc(OS(=O)(=O)Oc2cc3ccccc3cc2O[C@@H]2O[C@H](CO)[C@H](O)[C@H](O)[C@H]2O)cc1)C(=O)O (stereo partly drawn) [Compound A-12],< 5
13,CC(C)(C)OC(=O)NCCN(CC(=O)O)C(=O)Cn1cnc2c(OCc3ccc(OS(=O)(=O)Oc4ccccc4OC4O[C@H](CO)[C@H](O)[C@H](O)[C@H]4O)cc3)nc(N)nc21 (stereo partly drawn) [Compound A-18],< 5
14,CCc1c2c(nc3ccc(OS(=O)(=O)Oc4cc(C(=O)NCCOCCOCCOCCN=[N+]=[N-])ccc4O[C@@H]4O[C@H](CO)[C@H](O)[C@H](O)[C@H]4O)cc13)-c1cc3c(c(=O)n1C2)COC(=O)[C@]3(O)CC [Compound B-2],0.28
15,O=C(OCCc1cccnc1)OCc1ccc(OS(=O)(=O)Oc2ccccc2O[C@@H]2O[C@H](CO)[C@H](O)[C@H](O)[C@H]2O)cc1 [Compound A-9],< 5

# Molecular target: T1, Human β-galactosidase (Homo sapiens, UniProt P16278)
# T1 construct: purchased R&D 6464-GH-020
# T1 sequence (P16278 29-677): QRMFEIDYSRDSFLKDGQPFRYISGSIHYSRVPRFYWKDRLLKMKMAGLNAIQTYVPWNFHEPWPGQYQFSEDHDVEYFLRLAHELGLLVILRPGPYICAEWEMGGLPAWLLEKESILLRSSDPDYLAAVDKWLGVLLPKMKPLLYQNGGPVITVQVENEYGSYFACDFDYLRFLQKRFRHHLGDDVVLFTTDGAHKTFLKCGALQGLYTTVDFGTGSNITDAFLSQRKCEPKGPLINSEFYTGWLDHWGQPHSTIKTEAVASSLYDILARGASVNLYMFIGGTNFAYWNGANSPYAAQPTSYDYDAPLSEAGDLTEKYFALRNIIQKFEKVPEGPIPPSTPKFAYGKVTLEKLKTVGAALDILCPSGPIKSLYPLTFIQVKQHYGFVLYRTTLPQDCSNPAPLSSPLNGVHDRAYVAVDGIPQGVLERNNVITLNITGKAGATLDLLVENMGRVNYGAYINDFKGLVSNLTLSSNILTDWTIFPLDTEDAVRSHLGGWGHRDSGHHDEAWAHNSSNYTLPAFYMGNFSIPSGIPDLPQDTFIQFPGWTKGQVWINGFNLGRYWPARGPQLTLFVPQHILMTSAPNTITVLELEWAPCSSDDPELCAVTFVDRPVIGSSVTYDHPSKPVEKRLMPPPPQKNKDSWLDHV
# Test: Enzymatic cleavage assay, Method 2
# Format: biochemical
# Conditions: recombinant enzyme, 100 μM, pH 5
# Description: Method 2) Human β-galactosidase
# MPS used as a standard material was prepared as a solution to have a concentration of 500 μM in PBS buffer solution. […] Then, 140 μL of 0.1 mg/mL enzyme solution was added thereto, thereby preparing an enzyme reaction solution in a total amount of 700 μL. The reaction mixture was incubated at 37° C. Human β-galactosidase enzyme (R&D 6464-GH-020) was used in the reaction mixture.
row,SMILES,Q part release t1/2(min)
1,CCc1c2c(nc3ccc(OS(=O)(=O)Oc4cc(C(=O)NCCOCCOCCOCCN=[N+]=[N-])ccc4O[C@@H]4O[C@H](CO)[C@H](O)[C@H](O)[C@H]4O)cc13)-c1cc3c(c(=O)n1C2)COC(=O)[C@]3(O)CC [Compound B-2],39.41

# Same assay, conditions: recombinant enzyme, 100 μM, pH 7.4
row,SMILES,Q part release t1/2(min)
1,CCc1c2c(nc3ccc(OS(=O)(=O)Oc4cc(C(=O)NCCOCCOCCOCCN=[N+]=[N-])ccc4O[C@@H]4O[C@H](CO)[C@H](O)[C@H](O)[C@H]4O)cc13)-c1cc3c(c(=O)n1C2)COC(=O)[C@]3(O)CC [Compound B-2],112.2

# Same assay, conditions: recombinant enzyme, Method 2, pH 7.4, 37° C., HPLC, read-out: TG release t1/2(min)
row,SMILES,half-life at 100 μM [min]
1,CC(C)(C)OC(=O)NC(Cc1ccc(OS(=O)(=O)Oc2ccccc2O[C@@H]2O[C@H](C(=O)O)[C@@H](O)[C@H](O)[C@H]2O)cc1)C(=O)O (stereo partly drawn) [Compound A-3],10.7

# Same assay, conditions: recombinant enzyme, pH 5
row,SMILES,half-life at 100 μM [min]
1,CCc1c2c(nc3ccc(OS(=O)(=O)Oc4cc(C(=O)NCCOCCOCCOCCN=[N+]=[N-])ccc4O[C@@H]4O[C@H](CO)[C@H](O)[C@H](O)[C@H]4O)cc13)-c1cc3c(c(=O)n1C2)COC(=O)[C@]3(O)CC [Compound B-2],5.33
